Patent US5229413A, “Compositions containing indole-2-carboxylate compounds for treatment of CNS disorders” (G. D. Searle & Co., priority 1992, dated 1993)

What was measured:
[1] = target: N-methyl-D-aspartate (NMDA) receptor site; experiment: Glutamate (NMDA) binding assay, L-[3H]glutamate, synaptic plasma membranes; details: L-[3H]glutamate 12.5 nM, pH 7.4, 0-4° C.; read-out: Ki apparent, NMDA
Description: The purpose of this assay is to determine the binding affinity of a compound of Formula I for the N-methyl-D-aspartate (NMDA) receptor site. This procedure was carried out as follows:
Synaptic plasma membranes (SPM) were prepared as previously described [Monahan, J. B. and Michel, J., "Identification and Characterization of an N-methyl-D-aspartate-specific L-[^3 H]glutamate Recognition Site in Synaptic Plasma Membranes, J. Neurochem., 48, 1699-1708 (1987)]. The SPM were stored at a concentration of 10-15 mg/ml in 0.32 M sucrose, 0.5 mM EDTA, 1 mM MgSO4, 5 mM Tris/SO4, pH 7.4, under liquid nitrogen. The identity and purity of the subcellular fractions were confirmed by both electron microscopy and marker enzymes. Protein concentrations were determined by using a modification of the method of Lowry [Ohnishi, S. T. and Barr, J. K., "A Simplified Method of Quantitating Proteins Using the Biuret and Phenol Reagents", Anal. Biochem., 86, 193-197 (1978)]. The SPM were thawed at room temperature, diluted twenty-fold with 50 mM Tris/acetate, pH 7.4, incubated at 37° C. for 30 minutes, and centrifuged at 100,000 g for 15 minutes. The dilution, incubation, and centrifugation was repeated a total of three times. This general method involved adding 12.5 nM of the L-[^3 H]glutamate radioligand to the appropriate concentration of the test compound and initiating the assay by the addition of ice cold SPM (0.2-0.45 mg). The binding assays were performed in 1.5 ml centrifuge tubes with the total volume adjusted to 1.0 ml. Additions of test compounds were made in 50 mM Tris/acetate, pH 7.4 and incubations were carried out at 0°-4° C. The incubation time for the NMDA binding assay was 10 minutes. To terminate the incubation, the samples were centrifuged for 15 minutes at 12,000 g and 4° C. in a Beckman Microfuge 12. The supernatant was aspirated and the pelleted membranes dissolved in Beckman Ready-Protein scintillation cocktail and the samples counted on a Beckman LS 5800 or 3801 liquid scintillation counter with automatic corrections for quenching and counting efficiency. Nonspecific binding was defined as the residual binding in the presence of 0.5 mM NMDA and was typically 15-25% of the total binding in the NMDA binding assay. Radioligand binding to the SPM was analyzed using Scatchard and Hill transformations and the Ki values of the compounds determined using logit-log transformations. Calculations and regression analysis were performed using templates developed for Lotus 1, 2, 3 as previously described [Pullan, L. M. "Automated Radioligand Receptor Binding Analysis with Templates for Lotus", Computer Appln. Biosci., 3 131 (1987)]. Binding results are reported in Table II for example compounds of the invention.

[2] = target: T1, NMDA receptor (rat brain receptor expressed in Xenopus oocytes) (Rattus norvegicus, UniProt P35439); experiment: Xenopus oocytes injected with rat cortex mRNA, blocking of glycine effects (voltage clamp); format: cell-based; details: 100 μM NMDA
T1 construct: PolyA+ RNA (mRNA) was extracted from adult male rat cortex; expressed in transfected cells; host or cells: Xenopus laevis oocytes microinjected with rat cortex poly(A)+ RNA
Description: PolyA+ RNA (mRNA) was extracted from adult male rat cortex using the refined guanidinium thiocyanate method developed by Han et al [J. H. Han et al., Biochemistry, 26, 1617-1625 (1987)] and the oligo (dT) cellulose chromatography procedure of Adiv and Leder [H. Aviv et al., Proc. Nat. Acad. Sci., 69, 1408-1412 (1972)]. Aliquots of mRNA (1.0 mg/ml water) were stored at -20° C.
Gravid adult female Xenopus laevis (Xenopus One, Ann Arbor, Mich. or NASCO, Ft. Atkinson, Wis.) were anaesthetized with 0.2% (w/v) Tricaine (3-amino benzoic acid ethyl ester; Sigma) and subjected to partial ovarectomy. Excised oocytes were then prepared and microinjected [N. W. Kleckner et al, Science 241 835-837 (1988)]. Oocytes were treated for one hour in Barth's solution (88.0 mM NaCl, 1.0 mM KCl, 2.4 mM NaHCO3, 0.41 mM CaCl2, 0.82 mM MgSO4, 10.0 μg/ml penicillin, 100.0 μg/ml streptomycin, 10.0 mM HEPES, pH 7.5) containing 1.5 mg/ml Neutral Protease (Beohringer Mannheim Biochemicals, Grade II). Oocytes were then placed in Barth's solution containing 100.0 mM sucrose and manually defolliculated with fine forceps. Defolliculated oocytes were then microinjected with approximately 50 ng of mRNA in Barth's solution at 16°-18° C.
Oocytes were assayed 2-8 days later for rat brain receptor expression via single electrode voltage. clamp (Axoclamp 2A, Axon Instruments) in a manner similar to that previously described [Kleckner et al, Id.]. […] Drugs were added to the perfusate and inward currents induced by agonist compounds were measured at peak steady state response. […] Antagonist compounds were perfused for a minimum of 3.0 minutes prior to subsequent agonist co-application. Data are expressed as percent maximal response (mean±S.E.M.). Half-maximal responses (EC50 's) and slopes for dose response data were determined from the least squares fit to the logistic regression equation.

O=C(O)Cc1c(C(=O)O)[nH]c2cc(Cl)ccc12 [Compound No. 6, 2-carboxy-6-chloro-3-indoleacetic acid]
Ki [1]: > 100 µM | IC50 ([2]; IC50, 0.1 μM Gly, 0.1 μM glycine): 0.77 ± 0.12 µM | IC50 ([2]; IC50, 1.0 μM Gly, 1.0 μM glycine): 3.2 ± 1.1 µM | IC50 ([2]; IC50, 10 μM Gly, 10 μM glycine): 6.1 ± 3.2 µM
